The text below walks through data of PubChem BioAssay (NCI).

Test systems include A498 renal; DU-145 prostate; HOP-62 NSCLC; MOLT-4 leukemia; NCI-H522 lung; SK-MEL-28 melanoma; SR leukemia; UO-31 renal.
Common to all, as to assay: NCI-60 cell line screen, 48 h

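Compound exposure: 48 hours, 5 concentrations, 96-well plates. Abbreviation: GI50, concentration required for 50% inhibition of growth. TGI denotes the concentration required for complete inhibition of growth.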

`Oc1ccc(N=Nc2ccc(Br)cc2)c(O)c1`: the GI50 in the experiment with A498 renal is 3260 nM; in the experiment with DU-145 prostate, 3430 nM; in the experiment on HOP-62 NSCLC it was 3900 nM; with MOLT-4 leukemia it was 1940 nM; in the experiment on NCI-H522 lung, 1740 nM; in the experiment with SK-MEL-28 melanoma, 7970 nM. The figures for the GI50 in the experiment on SR leukemia and in the experiment with UO-31 renal were 337 nM and 2270 nM, respectively. The TGI in the experiment with A498 renal was 20700 nM; in the experiment with DU-145 prostate it was 17900 nM; with HOP-62 NSCLC, 19500 nM; with MOLT-4 leukemia it was 5560 nM; in the experiment on NCI-H522 lung it was 6530 nM; in the experiment on SK-MEL-28 melanoma, over 100000 nM. Further, the values for the TGI with SR leukemia and in the experiment on UO-31 renal were 2540 nM and 15600 nM, respectively.

As to `CCN1/C(=C/C(C)=C/c2sc3ccc4ccccc4c3[n+]2CC)Sc2ccc3ccccc3c21`, the GI50 with A498 renal is 181 nM; with DU-145 prostate, 142 nM; in the experiment with HOP-62 NSCLC, 192 nM; in the experiment on MOLT-4 leukemia it was 164 nM; with NCI-H522 lung it was 121 nM; with SK-MEL-28 melanoma, 165 nM. Moreover, in the experiment with UO-31 renal, the GI50 is 181 nM. In addition, the TGI came to 759 nM in the experiment on A498 renal; 631 nM in the experiment on DU-145 prostate; 470 nM in the experiment with HOP-62 NSCLC; 2150 nM with MOLT-4 leukemia; 528 nM in the experiment on NCI-H522 lung; 329 nM in the experiment with SK-MEL-28 melanoma. The compound further yielded a TGI in the experiment with UO-31 renal of 571 nM.

Turning to `CCNCC(=O)Nc1ccc2c(c1)C(=O)c1ccc(NC(=O)CNCC)cc1C2=O`, the TGI with A498 renal was found to be 6460 nM; with DU-145 prostate it was 11700 nM; in the experiment with HOP-62 NSCLC it was 20000 nM; with NCI-H522 lung, 4610 nM; with SK-MEL-28 melanoma, 19200 nM; with UO-31 renal it was 8900 nM.

With `Cn1cnc([N+](=O)[O-])c1S(=O)(=O)Oc1ccc(Cl)cc1`, the GI50 is 17000 nM in the experiment with A498 renal; 4750 nM with DU-145 prostate; 16100 nM with HOP-62 NSCLC; 2250 nM with MOLT-4 leukemia; 1820 nM in the experiment on NCI-H522 lung; 19200 nM in the experiment on SK-MEL-28 melanoma. In addition, the GI50 in the experiment with SR leukemia is 1850 nM; in the experiment with UO-31 renal it was 2360 nM. For the same compound, the TGI in the experiment with A498 renal was found to be 42500 nM; with DU-145 prostate, 17800 nM; in the experiment with HOP-62 NSCLC, 39000 nM; in the experiment on MOLT-4 leukemia it was 5260 nM; in the experiment with NCI-H522 lung it was 4220 nM; in the experiment on SK-MEL-28 melanoma it was 51800 nM. Also, the TGI came out at 4360 nM in the experiment on SR leukemia and 8750 nM in the experiment with UO-31 renal.

Consider `Clc1cc(Br)ccc1-c1ccc(CNCC2CCNCC2)o1`, for which the GI50 in the experiment with A498 renal was 1870 nM; in the experiment on DU-145 prostate it was 1750 nM; with HOP-62 NSCLC it was 1840 nM; in the experiment with MOLT-4 leukemia, 1700 nM; in the experiment with NCI-H522 lung it was 1820 nM; with SK-MEL-28 melanoma it was 1890 nM. Also, the GI50 with SR leukemia was 444 nM; with UO-31 renal, 1660 nM. The TGI in the experiment with A498 renal amounted to 4240 nM; with DU-145 prostate it was 3210 nM; with HOP-62 NSCLC, 3430 nM; in the experiment with MOLT-4 leukemia, 3570 nM; in the experiment on NCI-H522 lung it was 3720 nM; in the experiment with SK-MEL-28 melanoma, 3420 nM. The TGI in the experiment with SR leukemia was 2650 nM; in the experiment on UO-31 renal, 3240 nM.

With `COc1cc2c3c(n(CCCN=[N+]=[N-])c(=O)c2cc1OC)-c1ccccc1C3=O`, the GI50 with DU-145 prostate was 28000 nM; in the experiment with HOP-62 NSCLC, 3530 nM; in the experiment on MOLT-4 leukemia it was 702 nM; in the experiment with NCI-H522 lung, 44800 nM; with SK-MEL-28 melanoma, over 100000 nM; with UO-31 renal, over 100000 nM. For the same compound, the TGI with DU-145 prostate was over 100000 nM; in the experiment on HOP-62 NSCLC it was 43100 nM; in the experiment on MOLT-4 leukemia it was 3380 nM; in the experiment with NCI-H522 lung, over 100000 nM; in the experiment with SK-MEL-28 melanoma, over 100000 nM; with UO-31 renal, over 100000 nM.

For the compound `COc1ccc2c(n1)Sc1nc3ccccc3nc1N2`, the TGI in the experiment on A498 renal is over 100000 nM; with DU-145 prostate it was over 100000 nM; in the experiment on HOP-62 NSCLC, 79500 nM; in the experiment with MOLT-4 leukemia it was 35100 nM; in the experiment on NCI-H522 lung, over 100000 nM; in the experiment on SK-MEL-28 melanoma, over 100000 nM. Besides, the TGI with UO-31 renal was 89100 nM.

With `COc1ccc(C)c2sc(N(Cc3cccnc3)C(=O)c3ccc(C#N)cc3)nc12`, the GI50 in the experiment with A498 renal is 2210 nM; with DU-145 prostate, 51900 nM; with HOP-62 NSCLC it was over 100000 nM; in the experiment with MOLT-4 leukemia it was 33500 nM; with NCI-H522 lung, 29700 nM; with UO-31 renal, 23400 nM. Further, the TGI in the experiment on A498 renal was 95500 nM; in the experiment on DU-145 prostate, over 100000 nM; in the experiment on HOP-62 NSCLC it was over 100000 nM; with MOLT-4 leukemia, over 100000 nM; in the experiment with NCI-H522 lung, over 100000 nM; with UO-31 renal, over 100000 nM.

For the compound `CCCCCCCCCCCCCCCCn1cc[n+](C)c1`, the GI50 with A498 renal was 109 nM; in the experiment with DU-145 prostate, 651 nM; with HOP-62 NSCLC, 443 nM; in the experiment on MOLT-4 leukemia it was 306 nM; in the experiment with SK-MEL-28 melanoma, 707 nM; in the experiment on SR leukemia, 74.2 nM. Besides, the GI50 with UO-31 renal is 1040 nM. Also, the TGI with A498 renal came to 760 nM; in the experiment on DU-145 prostate, 1940 nM; in the experiment on HOP-62 NSCLC it was 1730 nM; with MOLT-4 leukemia, 1500 nM; with SK-MEL-28 melanoma, 2050 nM; in the experiment on SR leukemia it was 787 nM. This compound also registered a TGI in the experiment with UO-31 renal of 2240 nM.

Regarding `CC[C@]12CN3CCc4c([nH]c5ccccc45)[C@@](C(=O)OC)(c4cc5c(cc4OC)N(C)[C@H]4[C@@](O)(C(=O)OC)[C@H](OC(C)=O)[C@]6(CC)C=CCN7CC[C@]54[C@@H]76)CC(C3)[C@H]1O2` (stereo partly specified), the GI50 is 241 nM in the experiment on A498 renal; 121 nM with DU-145 prostate; 121 nM in the experiment with HOP-62 NSCLC; 236 nM with MOLT-4 leukemia; 1830 nM in the experiment with UO-31 renal. Further, the TGI was 26900 nM in the experiment with HOP-62 NSCLC, over 100000 nM in the experiment with MOLT-4 leukemia, 93100 nM in the experiment with SK-MEL-28 melanoma and over 88500 nM with UO-31 renal.

With `CCCCCCOC(=O)CC1=C(C)/C(=C/c2[nH]c(-c3ccc[nH]3)cc2OC)N=C1C`, the GI50 with A498 renal was 321 nM; in the experiment with DU-145 prostate, 72.8 nM; in the experiment on HOP-62 NSCLC it was 98.2 nM; with MOLT-4 leukemia, 43.6 nM; with NCI-H522 lung it was 50.6 nM; in the experiment on SR leukemia, 30.7 nM. Besides, the GI50 with UO-31 renal was 163 nM. The TGI in the experiment on A498 renal was 1330 nM; in the experiment on DU-145 prostate, 1860 nM; in the experiment on HOP-62 NSCLC, 1150 nM; with MOLT-4 leukemia, 1460 nM; with NCI-H522 lung, 1120 nM; in the experiment on SR leukemia, 182 nM. This compound yielded a TGI in the experiment with UO-31 renal of 329 nM.
